This note sets out measurements from ChEMBL document CHEMBL5223112, “Design, synthesis, and structure-activity relationship of novel RIPK2 inhibitors” (Bioorg Med Chem Lett, 2022).

Bounds are passed on as bounds.

Series [1] has as its system THP-1. The experiment in a line: Antiinflammatory activity in MDP-stimulated IL-8 production in human THP-1 cells pretreated for 2 hrs followed by MDP stimulation for 6 hrs. The format is functional, cell-based.
In series [2] the target is Receptor-interacting serine/threonine-protein kinase 2 (Homo sapiens, UniProt O43353). The experiment in a line: Binding affinity to RIPK2 (unknown origin) assessed as dissociation constant by kinomescan assay.
Chain of Receptor-interacting serine/threonine-protein kinase 2 (O43353 whole entry): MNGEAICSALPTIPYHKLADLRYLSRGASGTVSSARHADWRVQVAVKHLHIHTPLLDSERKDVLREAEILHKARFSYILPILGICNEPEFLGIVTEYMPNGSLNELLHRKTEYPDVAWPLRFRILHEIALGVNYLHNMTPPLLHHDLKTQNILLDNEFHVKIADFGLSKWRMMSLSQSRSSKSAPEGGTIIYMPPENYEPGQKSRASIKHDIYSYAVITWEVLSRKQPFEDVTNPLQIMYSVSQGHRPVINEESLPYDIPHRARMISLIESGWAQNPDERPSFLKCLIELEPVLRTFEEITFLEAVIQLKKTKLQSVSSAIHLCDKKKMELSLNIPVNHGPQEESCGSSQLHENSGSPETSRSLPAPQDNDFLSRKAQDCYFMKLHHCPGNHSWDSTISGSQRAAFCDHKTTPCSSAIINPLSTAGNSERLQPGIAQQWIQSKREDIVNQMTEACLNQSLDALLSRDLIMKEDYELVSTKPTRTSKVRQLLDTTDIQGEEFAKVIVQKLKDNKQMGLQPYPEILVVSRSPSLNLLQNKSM
A short description of series [3]: Metabolic stability in mouse liver microsomes assessed as intrinsic clearance. The format is ADME. As to conditions: read-out: CLH. In general terms: Liver microsomes are vesicles of endoplasmic reticulum, rich in cytochrome P450 enzymes.
For series [4], the target named is CYP2D6 (Homo sapiens, UniProt P10635). The experiment in a line: Inhibition of CYP2D6 (unknown origin) at 10 uM relative to control. The format is ADME.
Chain of CYP2D6 (P10635 whole entry): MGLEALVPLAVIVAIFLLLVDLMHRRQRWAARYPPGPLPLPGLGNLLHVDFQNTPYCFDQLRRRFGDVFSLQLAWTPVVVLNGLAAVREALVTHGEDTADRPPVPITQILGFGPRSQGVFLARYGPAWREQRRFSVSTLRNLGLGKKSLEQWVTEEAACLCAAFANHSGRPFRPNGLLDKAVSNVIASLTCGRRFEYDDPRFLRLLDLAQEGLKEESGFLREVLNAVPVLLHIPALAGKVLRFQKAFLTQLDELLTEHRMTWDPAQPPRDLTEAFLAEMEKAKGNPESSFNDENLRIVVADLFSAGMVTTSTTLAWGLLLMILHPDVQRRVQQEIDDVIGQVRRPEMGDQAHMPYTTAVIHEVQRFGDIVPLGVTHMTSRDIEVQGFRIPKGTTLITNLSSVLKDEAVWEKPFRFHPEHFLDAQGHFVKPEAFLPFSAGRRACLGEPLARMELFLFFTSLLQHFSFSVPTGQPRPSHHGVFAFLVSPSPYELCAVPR
The nature of series [5]: Metabolic stability in human liver microsomes assessed as half life. In kind it is ADME.
Series [6] concerns the target T1, CYP3A4 (Homo sapiens, UniProt P08684). The experiment in a line: Inhibition of CYP3A4 (unknown origin) at 10 uM using testosterone as substrate relative to control. In kind it is ADME. As to conditions: probe testosterone.
In series [7] the target is CYP2C19 (Homo sapiens, UniProt P33261). The experiment in a line: Inhibition of CYP2C19 (unknown origin) at 10 uM relative to control. The format is ADME.
Chain of CYP2C19 (P33261 whole entry): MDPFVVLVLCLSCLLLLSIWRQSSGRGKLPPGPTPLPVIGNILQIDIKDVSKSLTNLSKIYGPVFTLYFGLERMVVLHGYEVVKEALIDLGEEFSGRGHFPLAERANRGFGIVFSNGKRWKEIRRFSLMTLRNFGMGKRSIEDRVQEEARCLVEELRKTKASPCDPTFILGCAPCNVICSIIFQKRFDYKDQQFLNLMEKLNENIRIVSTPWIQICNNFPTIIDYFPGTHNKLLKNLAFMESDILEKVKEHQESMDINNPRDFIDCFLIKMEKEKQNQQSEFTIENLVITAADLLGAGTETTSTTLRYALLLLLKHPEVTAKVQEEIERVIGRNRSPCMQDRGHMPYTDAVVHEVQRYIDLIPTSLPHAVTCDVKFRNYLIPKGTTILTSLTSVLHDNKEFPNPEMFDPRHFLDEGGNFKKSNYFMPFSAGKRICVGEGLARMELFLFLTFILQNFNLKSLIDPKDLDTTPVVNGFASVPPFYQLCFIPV
The target of series [8] is T2, CYP1A2 (Homo sapiens, UniProt P05177).
T2 sequence (P05177 whole entry): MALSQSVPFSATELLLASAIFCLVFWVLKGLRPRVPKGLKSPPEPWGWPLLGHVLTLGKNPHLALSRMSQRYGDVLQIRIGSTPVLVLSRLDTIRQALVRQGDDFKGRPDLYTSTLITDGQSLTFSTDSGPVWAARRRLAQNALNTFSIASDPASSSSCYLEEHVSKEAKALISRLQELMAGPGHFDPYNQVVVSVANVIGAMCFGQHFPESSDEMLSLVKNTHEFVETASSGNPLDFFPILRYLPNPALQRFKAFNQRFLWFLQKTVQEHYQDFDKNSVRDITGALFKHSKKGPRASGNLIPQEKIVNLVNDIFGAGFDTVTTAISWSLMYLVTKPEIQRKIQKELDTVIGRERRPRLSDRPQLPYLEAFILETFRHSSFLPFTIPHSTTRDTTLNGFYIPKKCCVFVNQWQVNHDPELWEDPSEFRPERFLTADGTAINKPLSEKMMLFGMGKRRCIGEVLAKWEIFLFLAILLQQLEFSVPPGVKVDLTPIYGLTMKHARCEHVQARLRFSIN
The experiment in a line: Inhibition of CYP1A2 (unknown origin) at 10 uM relative to control. In kind it is ADME.

Series [9] has as its target T3, Receptor-interacting serine/threonine-protein kinase 1 (Homo sapiens, UniProt Q13546).
T3 sequence (Q13546 whole entry): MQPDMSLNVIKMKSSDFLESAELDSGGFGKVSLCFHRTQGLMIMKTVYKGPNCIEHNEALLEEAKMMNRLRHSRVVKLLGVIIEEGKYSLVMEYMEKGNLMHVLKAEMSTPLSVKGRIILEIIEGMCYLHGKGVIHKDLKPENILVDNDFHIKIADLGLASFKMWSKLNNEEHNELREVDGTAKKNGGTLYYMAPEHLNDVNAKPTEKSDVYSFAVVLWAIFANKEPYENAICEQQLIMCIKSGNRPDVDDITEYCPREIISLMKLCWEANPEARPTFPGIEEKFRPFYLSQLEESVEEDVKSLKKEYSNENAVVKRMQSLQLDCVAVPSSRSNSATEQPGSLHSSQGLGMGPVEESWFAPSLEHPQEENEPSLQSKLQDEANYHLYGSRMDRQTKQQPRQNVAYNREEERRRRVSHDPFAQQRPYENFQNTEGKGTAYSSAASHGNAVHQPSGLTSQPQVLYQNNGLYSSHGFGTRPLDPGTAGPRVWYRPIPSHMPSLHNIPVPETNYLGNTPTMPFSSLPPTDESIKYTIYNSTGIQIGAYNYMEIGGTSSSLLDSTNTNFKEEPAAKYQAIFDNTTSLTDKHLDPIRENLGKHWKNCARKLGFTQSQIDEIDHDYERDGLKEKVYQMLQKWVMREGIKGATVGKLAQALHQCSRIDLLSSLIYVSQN
The experiment in a line: Binding affinity to RIPK1 (unknown origin) assessed as dissociation constant by kinomescan assay.

Series [10] is described as follows: Metabolic stability in dog liver microsomes assessed as intrinsic clearance. The format is ADME, Canis lupus familiaris. Particulars: read-out: CLH.
Series [11] can be described thus: Metabolic stability in human liver microsomes assessed as intrinsic clearance. The format is ADME. As to conditions: read-out: CLH.
Series [12] has as its target Voltage-gated inwardly rectifying potassium channel KCNH2 (Homo sapiens, UniProt Q12809). The experiment in a line: Inhibition of hERG. In kind it is toxicity. For orientation: Block of hERG is tested as a sign of cardiac risk.
Series [13] can be described thus: Metabolic stability in mouse liver microsomes assessed as half life. The format is ADME.
The nature of series [14]: Metabolic stability in rat liver microsomes assessed as half life. The format is ADME.
Series [15] concerns the target Receptor-interacting serine/threonine-protein kinase 3 (Homo sapiens, UniProt Q9Y572). The experiment in a line: Binding affinity to RIPK3 (unknown origin) assessed as dissociation constant by kinomescan assay.
Series [16] concerns the target T1, CYP3A4. The experiment in a line: Inhibition of CYP3A4 (unknown origin) at 10 uM using midazolam as substrate relative to control. In kind it is ADME. As to conditions: probe midazolam.
A short description of series [17]: Metabolic stability in dog liver microsomes assessed as half life. In kind it is ADME, Canis lupus familiaris.
Series [18] can be described thus: Metabolic stability in monkey liver microsomes assessed as intrinsic clearance. In kind it is ADME, Macaca mulatta. Particulars: rhesus monkey, read-out: CLH.
The nature of series [19]: Metabolic stability in rat liver microsomes assessed as intrinsic clearance. The format is ADME. Particulars: read-out: CLH.
The nature of series [20]: Metabolic stability in monkey liver microsomes assessed as half life. In kind it is ADME, Macaca mulatta. As to conditions: rhesus monkey.
Series [21] has as its target CYP2C9 (Homo sapiens, UniProt P11712). The experiment in a line: Inhibition of CYP2C9 (unknown origin) at 10 uM relative to control. The format is ADME.

Chain of CYP2C9 (P11712 whole entry): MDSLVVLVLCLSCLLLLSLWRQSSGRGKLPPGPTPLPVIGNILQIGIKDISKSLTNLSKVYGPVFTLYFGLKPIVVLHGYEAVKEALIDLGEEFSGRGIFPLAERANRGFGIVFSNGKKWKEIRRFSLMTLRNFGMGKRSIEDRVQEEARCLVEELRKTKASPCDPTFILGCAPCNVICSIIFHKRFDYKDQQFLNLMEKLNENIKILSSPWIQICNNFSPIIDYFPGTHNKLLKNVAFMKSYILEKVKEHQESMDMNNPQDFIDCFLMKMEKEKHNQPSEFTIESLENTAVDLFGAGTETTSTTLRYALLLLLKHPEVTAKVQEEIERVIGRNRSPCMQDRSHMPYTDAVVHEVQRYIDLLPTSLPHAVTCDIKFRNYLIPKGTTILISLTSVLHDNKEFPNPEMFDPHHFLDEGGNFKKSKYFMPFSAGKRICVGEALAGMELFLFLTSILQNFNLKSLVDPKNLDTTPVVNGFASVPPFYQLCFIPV
T1 sequence (P08684 whole entry): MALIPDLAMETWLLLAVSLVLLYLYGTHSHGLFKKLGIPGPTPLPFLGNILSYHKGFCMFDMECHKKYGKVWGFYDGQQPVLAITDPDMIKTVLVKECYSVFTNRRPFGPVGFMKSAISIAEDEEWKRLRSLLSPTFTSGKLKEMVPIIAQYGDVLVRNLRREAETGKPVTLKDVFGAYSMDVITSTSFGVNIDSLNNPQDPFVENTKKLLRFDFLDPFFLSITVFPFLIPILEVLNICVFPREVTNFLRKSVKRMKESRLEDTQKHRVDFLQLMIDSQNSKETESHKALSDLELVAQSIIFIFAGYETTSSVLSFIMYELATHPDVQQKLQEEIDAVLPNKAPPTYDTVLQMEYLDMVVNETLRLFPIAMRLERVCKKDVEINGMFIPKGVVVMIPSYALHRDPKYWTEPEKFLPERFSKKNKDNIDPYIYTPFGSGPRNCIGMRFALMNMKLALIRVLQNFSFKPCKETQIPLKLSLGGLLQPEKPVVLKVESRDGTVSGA
Chain of Receptor-interacting serine/threonine-protein kinase 3 (Q9Y572 whole entry): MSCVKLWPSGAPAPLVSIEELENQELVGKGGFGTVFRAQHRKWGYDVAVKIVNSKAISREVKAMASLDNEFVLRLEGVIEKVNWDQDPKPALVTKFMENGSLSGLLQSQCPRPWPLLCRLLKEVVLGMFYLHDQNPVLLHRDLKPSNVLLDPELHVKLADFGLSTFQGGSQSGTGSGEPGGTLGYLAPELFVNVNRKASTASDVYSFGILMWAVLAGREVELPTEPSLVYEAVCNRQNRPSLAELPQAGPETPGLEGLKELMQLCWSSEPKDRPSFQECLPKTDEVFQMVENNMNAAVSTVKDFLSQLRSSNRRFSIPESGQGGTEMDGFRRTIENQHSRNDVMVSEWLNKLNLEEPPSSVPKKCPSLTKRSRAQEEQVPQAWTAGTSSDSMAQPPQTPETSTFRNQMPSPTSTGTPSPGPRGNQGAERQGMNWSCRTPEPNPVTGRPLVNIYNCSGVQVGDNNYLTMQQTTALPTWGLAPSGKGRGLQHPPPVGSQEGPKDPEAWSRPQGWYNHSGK
Chain of Voltage-gated inwardly rectifying potassium channel KCNH2 (Q12809 whole entry): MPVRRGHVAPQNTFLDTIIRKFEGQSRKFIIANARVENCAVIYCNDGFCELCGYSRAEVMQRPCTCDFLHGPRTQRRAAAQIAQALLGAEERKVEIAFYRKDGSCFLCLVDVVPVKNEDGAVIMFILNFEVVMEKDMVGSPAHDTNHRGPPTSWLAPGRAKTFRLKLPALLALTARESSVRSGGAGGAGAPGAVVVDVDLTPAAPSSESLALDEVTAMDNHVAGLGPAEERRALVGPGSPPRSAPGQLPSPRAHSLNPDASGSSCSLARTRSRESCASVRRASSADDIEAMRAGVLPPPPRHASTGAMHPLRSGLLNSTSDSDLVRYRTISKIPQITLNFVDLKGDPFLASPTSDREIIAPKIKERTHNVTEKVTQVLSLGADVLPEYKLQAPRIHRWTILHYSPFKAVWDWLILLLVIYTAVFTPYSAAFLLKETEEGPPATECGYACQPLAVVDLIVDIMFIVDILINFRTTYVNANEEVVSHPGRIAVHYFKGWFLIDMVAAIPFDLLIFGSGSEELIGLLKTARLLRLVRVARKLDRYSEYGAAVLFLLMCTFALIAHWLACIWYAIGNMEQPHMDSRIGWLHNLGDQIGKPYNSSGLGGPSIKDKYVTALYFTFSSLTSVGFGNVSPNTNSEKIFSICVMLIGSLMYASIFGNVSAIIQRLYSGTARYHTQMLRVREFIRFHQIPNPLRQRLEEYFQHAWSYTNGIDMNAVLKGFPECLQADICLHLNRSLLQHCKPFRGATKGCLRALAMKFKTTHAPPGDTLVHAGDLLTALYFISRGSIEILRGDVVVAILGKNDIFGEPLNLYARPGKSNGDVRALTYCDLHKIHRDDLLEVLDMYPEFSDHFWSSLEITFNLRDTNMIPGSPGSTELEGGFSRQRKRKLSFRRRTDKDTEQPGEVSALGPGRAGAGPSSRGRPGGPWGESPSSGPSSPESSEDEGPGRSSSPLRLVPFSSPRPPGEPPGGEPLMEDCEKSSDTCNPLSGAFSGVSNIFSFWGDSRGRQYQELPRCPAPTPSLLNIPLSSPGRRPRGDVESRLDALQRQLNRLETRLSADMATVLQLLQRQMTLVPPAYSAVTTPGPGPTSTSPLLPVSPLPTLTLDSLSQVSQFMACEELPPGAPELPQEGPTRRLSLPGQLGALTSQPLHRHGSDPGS

As a reminder, the IC50 is the concentration that inhibits the measured activity by half. By Kd is commonly meant the free concentration of one partner at which half of the binding sites on the other are occupied at equilibrium, for simple one-to-one binding. `CC(C)(C)S(=O)(=O)c1cc2c(Nc3ccc4scnc4c3)ncnc2cc1OCCOP(=O)(O)O`: the IC50 in series [1] is 1.34 nM. Besides, in series [2], the Kd turned out to be 0.78 nM.

Usually inhibition stands for the relative decrease from the control value, in per cent. Usually half-life stands for the time in which the quantity being followed falls by half. Regarding `CCOC1=CS(=O)(=O)c2cc3c(Nc4ccc5scnc5c4)ncnc3cc21`, the CLint scaled in series [3] is 87 mL/min/kg; in series [10] it was 133 mL/min/kg; in series [11] it was 9.19 mL/min/kg; in series [18], 53.3 mL/min/kg; in series [19], 17.5 mL/min/kg. The inhibition at 10 µM was -23.2% in [4]; -0.93% in series [6]; 16.6% in [7]; 18.1% in [8]; 0% in [16]; 10.7% in [21]. The half-life in series [5] turned out to be 189 min; in series [13], 62.7 min; in [14], 142 min; in series [17] it was 25.9 min; in series [20], 38 min. Besides, the results for the Kd in series [9], in series [2] and in series [15] were over 30000 nM, 5.9 nM and 43 nM, respectively. The half-inhibitory concentration (IC50) in [12] is over 10000 nM; in series [1], 1.99 nM.

On to `COC1=CS(=O)(=O)c2cc3c(Nc4ccc5scnc5c4)ncnc3cc21`, for which the Kd in [2] came out at 27 nM.

As for `CC1=C(C)S(=O)(=O)c2cc3c(Nc4ccc5scnc5c4)ncnc3cc21`, the CLint scaled in series [3] came out at 230 mL/min/kg; in series [10], 749 mL/min/kg; in series [11] it was 32.8 mL/min/kg; in series [18], 97 mL/min/kg; in series [19] it was 42.1 mL/min/kg. Moreover, the inhibition at 10 µM in series [4] was -15.7%; in series [6], 6.88%; in [7], 11.5%; in series [8] it was 14.9%; in series [16], -3.32%; in [21], -1.42%. Also, the half-life came out at 53 min in series [5]; 23.7 min in series [13]; 59 min in series [14]; 4.61 min in [17]; 20.9 min in [20]. Moreover, in [2], the Kd was determined as 8.2 nM.

`CC1=CS(=O)(=O)c2cc3c(Nc4ccc5scnc5c4)ncnc3cc21`: the Kd in [2] worked out at 14 nM.

In the case of `CC1=Cc2cc3ncnc(Nc4ccc5scnc5c4)c3cc2S1(=O)=O`, the Kd in series [2] amounted to 55 nM.

For the compound `O=S1(=O)C=C(C2CC2)c2cc3ncnc(Nc4ccc5nc[nH]c5c4)c3cc21`, the Kd in series [2] came out at 325 nM.

As for `O=S1(=O)C=C(C2CC2)c2cc3ncnc(Nc4cc(O)ccc4F)c3cc21`, the Kd in series [2] was determined as 14 nM.

As to `O=S1(=O)C=C(C2CC2)c2cc3ncnc(Nc4n[nH]c5ccc(F)cc45)c3cc21`, the Kd in series [2] came to 10 nM.

On to `O=S1(=O)C=C(c2ccc(F)cc2)c2cc3ncnc(Nc4ccc5scnc5c4)c3cc21`, for which the Kd in series [2] is 545 nM.

Consider `O=S1(=O)C=C(C2CC2)c2cc3ncnc(Nc4ccc5scnc5c4)c3cc21`, for which the CLint scaled in [3] worked out at 344 mL/min/kg; in series [10], 320 mL/min/kg; in [11], 27 mL/min/kg; in series [18] it was 71 mL/min/kg; in [19], 40.8 mL/min/kg. Also, the inhibition at 10 µM in series [4] was -13.6%; in [6], 14.3%; in [7], 40.6%; in series [8], 19.9%; in series [16], 14.9%; in series [21], 11.9%. In addition, the half-life in series [5] is 64.3 min; in series [13] it was 15.9 min; in series [14], 61 min; in [17], 10.8 min; in series [20] it was 28.5 min. For the same compound, the Kd in series [2] was 3.3 nM.

Take `O=S1(=O)C=C(c2ccccc2)c2cc3ncnc(Nc4ccc5scnc5c4)c3cc21`: in series [2], the Kd is 109 nM.

In the case of `Cc1[nH]nc(Nc2ncnc3cc4c(cc23)S(=O)(=O)C=C4C2CC2)c1C`, in series [2], the equilibrium dissociation constant (Kd) came to 10 nM.

On to `O=S1(=O)C=C(C2CC2)c2cc3ncnc(Nc4ccc5nn[nH]c5c4)c3cc21`, for which the Kd in series [2] came out at 10 nM.

Consider `CCOC1=C(C)S(=O)(=O)c2cc3c(Nc4ccc5scnc5c4)ncnc3cc21`, for which, in series [2], the Kd is 24 nM.

Consider `Cc1ccc(O)cc1Nc1ncnc2cc3c(cc12)S(=O)(=O)C=C3C1CC1`, for which the Kd in series [2] amounted to 70 nM.

As to `O=S1(=O)C=C(C2CC2)c2cc3ncnc(Nc4ccc5cc[nH]c5c4)c3cc21`, the Kd in series [2] was found to be 1200 nM.

Consider `CC1=Cc2cc3nc(C)nc(Nc4ccc5scnc5c4)c3cc2S1(=O)=O`, for which the Kd in series [2] turned out to be 685 nM.
